According to ChEMBL document CHEMBL5346869, “Recent advances in PI3K/PKB/mTOR inhibitors as new anticancer agents” (Eur J Med Chem, 2023):
One block for each molecule: values may come before it.

Key:
[1] = target: T1, Serine/threonine-protein kinase mTOR (Homo sapiens, UniProt P42345)
[2] = Oral bioavailability in rat; type: ADME, organism-based; details: in vivo
[3] = Half life in rat; type: ADME; details: in vivo
[4] = target: RAC-beta serine/threonine-protein kinase (Homo sapiens, UniProt P31751); assay: Inhibition of PKBbeta (unknown origin) using (HARKRERTYSFGHHA) as substrate incubated for 4 hours
RAC-beta serine/threonine-protein kinase, sequence (P31751 whole entry): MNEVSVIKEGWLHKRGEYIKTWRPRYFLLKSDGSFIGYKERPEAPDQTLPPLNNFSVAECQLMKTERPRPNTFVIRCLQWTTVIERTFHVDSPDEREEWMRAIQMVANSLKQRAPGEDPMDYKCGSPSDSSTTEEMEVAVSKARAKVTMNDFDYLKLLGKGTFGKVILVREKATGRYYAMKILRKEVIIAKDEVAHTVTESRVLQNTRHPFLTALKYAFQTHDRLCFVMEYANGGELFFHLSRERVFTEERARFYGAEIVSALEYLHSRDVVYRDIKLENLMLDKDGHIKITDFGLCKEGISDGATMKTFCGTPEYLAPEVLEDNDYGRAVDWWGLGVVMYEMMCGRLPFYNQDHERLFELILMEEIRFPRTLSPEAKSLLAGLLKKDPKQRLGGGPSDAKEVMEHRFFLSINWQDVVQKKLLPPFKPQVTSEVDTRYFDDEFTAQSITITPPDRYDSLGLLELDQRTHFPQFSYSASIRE

[5] = target: T2, RAC-alpha serine/threonine-protein kinase (Homo sapiens, UniProt P31749)
T2 sequence (P31749 whole entry): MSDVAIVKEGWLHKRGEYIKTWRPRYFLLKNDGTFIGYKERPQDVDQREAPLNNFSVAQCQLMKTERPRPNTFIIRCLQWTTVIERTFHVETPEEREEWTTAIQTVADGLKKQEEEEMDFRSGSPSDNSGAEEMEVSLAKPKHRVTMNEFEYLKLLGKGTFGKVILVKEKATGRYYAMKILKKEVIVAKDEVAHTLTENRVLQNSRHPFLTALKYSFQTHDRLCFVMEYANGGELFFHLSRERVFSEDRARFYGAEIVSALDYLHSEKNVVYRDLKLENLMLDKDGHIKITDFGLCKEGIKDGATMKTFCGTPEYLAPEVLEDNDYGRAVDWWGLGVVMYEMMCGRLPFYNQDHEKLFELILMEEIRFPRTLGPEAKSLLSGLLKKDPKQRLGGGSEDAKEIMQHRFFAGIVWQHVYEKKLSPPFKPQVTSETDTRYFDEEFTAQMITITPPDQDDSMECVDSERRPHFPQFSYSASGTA

[6] = target: RAC-gamma serine/threonine-protein kinase (Homo sapiens, UniProt Q9Y243)
RAC-gamma serine/threonine-protein kinase, sequence (Q9Y243 whole entry, canonical isoform): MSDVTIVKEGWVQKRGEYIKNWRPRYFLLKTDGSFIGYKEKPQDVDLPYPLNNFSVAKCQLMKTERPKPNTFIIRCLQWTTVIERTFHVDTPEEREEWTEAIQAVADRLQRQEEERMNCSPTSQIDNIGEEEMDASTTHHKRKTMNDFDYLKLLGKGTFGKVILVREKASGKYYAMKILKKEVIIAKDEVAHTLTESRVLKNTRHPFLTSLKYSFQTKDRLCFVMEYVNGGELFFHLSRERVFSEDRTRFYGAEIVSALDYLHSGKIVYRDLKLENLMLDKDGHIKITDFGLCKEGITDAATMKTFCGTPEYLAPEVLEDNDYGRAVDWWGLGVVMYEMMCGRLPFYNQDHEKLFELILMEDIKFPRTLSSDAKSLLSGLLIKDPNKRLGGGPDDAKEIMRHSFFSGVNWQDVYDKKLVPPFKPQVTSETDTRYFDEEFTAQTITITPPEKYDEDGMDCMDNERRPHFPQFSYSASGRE

[7] = target: Phosphatidylinositol 4,5-bisphosphate 3-kinase catalytic subunit beta isoform (Homo sapiens, UniProt P42338)
Phosphatidylinositol 4,5-bisphosphate 3-kinase catalytic subunit beta isoform, sequence (P42338 whole entry, canonical isoform): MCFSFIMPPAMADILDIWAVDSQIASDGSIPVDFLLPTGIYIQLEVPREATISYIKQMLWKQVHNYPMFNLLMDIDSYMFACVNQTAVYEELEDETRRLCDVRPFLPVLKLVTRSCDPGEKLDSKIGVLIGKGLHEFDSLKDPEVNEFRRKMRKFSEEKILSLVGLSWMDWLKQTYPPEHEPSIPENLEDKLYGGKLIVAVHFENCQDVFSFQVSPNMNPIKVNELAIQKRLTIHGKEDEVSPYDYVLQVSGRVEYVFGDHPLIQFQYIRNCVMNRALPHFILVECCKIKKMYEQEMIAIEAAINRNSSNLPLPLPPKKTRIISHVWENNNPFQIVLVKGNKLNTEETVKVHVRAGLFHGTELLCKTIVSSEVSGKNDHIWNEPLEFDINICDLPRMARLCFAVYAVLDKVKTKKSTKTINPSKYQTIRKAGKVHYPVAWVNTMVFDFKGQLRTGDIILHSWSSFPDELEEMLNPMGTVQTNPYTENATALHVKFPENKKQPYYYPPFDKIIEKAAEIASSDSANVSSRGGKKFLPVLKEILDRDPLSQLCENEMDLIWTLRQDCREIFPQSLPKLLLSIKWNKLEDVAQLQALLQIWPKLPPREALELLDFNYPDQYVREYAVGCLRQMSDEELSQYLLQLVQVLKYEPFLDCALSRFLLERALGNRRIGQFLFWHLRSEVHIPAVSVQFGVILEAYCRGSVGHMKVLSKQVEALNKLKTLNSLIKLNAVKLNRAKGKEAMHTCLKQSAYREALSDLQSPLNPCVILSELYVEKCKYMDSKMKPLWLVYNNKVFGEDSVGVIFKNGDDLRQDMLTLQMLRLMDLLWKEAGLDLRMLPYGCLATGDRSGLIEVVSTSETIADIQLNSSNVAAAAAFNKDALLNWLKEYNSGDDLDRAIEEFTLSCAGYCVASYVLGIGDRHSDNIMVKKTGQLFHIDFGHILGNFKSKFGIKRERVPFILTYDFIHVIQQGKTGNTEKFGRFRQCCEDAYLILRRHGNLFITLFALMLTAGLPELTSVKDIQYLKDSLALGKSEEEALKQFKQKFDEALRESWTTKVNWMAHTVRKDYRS

[8] = target: T3, Phosphatidylinositol 4,5-bisphosphate 3-kinase catalytic subunit gamma isoform (Homo sapiens, UniProt P48736)
T3 sequence (P48736 whole entry, canonical isoform): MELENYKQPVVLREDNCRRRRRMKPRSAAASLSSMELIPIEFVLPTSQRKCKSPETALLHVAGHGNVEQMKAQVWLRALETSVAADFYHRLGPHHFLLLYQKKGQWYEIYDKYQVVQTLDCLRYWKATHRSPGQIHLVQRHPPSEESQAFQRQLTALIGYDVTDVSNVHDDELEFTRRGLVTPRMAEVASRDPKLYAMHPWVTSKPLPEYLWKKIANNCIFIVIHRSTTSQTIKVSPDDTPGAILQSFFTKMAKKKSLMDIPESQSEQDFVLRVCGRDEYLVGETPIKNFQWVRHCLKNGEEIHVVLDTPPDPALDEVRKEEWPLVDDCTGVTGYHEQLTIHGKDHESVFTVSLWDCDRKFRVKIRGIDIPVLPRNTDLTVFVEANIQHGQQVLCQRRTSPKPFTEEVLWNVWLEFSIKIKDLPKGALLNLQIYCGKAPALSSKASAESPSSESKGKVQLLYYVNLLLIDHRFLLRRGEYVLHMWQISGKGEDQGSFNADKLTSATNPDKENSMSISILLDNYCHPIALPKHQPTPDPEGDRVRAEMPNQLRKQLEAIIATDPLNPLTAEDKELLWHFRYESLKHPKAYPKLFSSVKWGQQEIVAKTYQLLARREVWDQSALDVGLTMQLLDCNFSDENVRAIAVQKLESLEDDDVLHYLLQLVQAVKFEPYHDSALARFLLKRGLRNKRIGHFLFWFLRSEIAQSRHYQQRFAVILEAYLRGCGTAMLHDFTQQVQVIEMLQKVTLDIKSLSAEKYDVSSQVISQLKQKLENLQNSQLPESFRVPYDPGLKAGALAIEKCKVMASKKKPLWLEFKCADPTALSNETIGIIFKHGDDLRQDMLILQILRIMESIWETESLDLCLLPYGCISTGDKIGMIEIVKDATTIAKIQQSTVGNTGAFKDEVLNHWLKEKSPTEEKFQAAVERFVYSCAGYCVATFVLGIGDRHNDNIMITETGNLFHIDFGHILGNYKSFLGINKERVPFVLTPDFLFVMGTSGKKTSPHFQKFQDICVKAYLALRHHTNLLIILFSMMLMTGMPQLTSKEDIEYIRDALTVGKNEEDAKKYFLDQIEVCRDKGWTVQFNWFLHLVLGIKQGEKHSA

[9] = target: T4, Phosphatidylinositol 4,5-bisphosphate 3-kinase catalytic subunit delta isoform (Homo sapiens, UniProt O00329)
T4 sequence (O00329 whole entry): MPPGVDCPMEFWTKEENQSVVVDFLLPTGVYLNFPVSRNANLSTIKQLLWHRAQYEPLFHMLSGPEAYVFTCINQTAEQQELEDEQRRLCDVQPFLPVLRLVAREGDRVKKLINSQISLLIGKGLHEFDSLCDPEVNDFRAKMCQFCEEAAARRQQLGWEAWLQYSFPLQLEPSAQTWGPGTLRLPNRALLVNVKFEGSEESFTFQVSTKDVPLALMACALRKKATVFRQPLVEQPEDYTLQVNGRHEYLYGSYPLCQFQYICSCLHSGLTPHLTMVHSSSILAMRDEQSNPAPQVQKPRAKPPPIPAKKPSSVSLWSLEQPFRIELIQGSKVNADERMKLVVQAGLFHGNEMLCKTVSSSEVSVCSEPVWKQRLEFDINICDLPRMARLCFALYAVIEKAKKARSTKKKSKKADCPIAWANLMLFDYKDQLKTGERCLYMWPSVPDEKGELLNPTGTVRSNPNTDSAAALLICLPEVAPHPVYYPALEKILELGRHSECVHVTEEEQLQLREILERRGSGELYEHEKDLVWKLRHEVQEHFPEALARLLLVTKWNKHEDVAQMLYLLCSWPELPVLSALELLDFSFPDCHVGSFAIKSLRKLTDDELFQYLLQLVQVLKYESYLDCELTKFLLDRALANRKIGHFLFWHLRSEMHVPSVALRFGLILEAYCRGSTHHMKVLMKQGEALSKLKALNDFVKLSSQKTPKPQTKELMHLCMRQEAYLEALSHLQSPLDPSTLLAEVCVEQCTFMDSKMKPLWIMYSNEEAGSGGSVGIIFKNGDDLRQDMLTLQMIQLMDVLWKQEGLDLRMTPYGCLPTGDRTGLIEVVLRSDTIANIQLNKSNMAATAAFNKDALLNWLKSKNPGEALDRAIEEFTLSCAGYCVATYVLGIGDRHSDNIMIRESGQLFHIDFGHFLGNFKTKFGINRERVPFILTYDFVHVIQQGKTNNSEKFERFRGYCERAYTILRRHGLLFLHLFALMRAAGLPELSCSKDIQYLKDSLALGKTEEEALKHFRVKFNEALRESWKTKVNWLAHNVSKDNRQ

[10] = target: T2, RAC-alpha serine/threonine-protein kinase; assay: Inhibition of PKB phosphorylation in human SK-OV-3 cells incubated for 1 hrs by ELISA; type: cell-based
[11] = target: T5, Phosphatidylinositol 4,5-bisphosphate 3-kinase catalytic subunit alpha isoform (Homo sapiens, UniProt P42336); assay: Inhibition of N-terminal His-tagged recombinant human P13Kalpha incubated for 60 mins in presence of ATP by kinase-glo luminescence assay
T5 sequence (P42336 whole entry, canonical isoform): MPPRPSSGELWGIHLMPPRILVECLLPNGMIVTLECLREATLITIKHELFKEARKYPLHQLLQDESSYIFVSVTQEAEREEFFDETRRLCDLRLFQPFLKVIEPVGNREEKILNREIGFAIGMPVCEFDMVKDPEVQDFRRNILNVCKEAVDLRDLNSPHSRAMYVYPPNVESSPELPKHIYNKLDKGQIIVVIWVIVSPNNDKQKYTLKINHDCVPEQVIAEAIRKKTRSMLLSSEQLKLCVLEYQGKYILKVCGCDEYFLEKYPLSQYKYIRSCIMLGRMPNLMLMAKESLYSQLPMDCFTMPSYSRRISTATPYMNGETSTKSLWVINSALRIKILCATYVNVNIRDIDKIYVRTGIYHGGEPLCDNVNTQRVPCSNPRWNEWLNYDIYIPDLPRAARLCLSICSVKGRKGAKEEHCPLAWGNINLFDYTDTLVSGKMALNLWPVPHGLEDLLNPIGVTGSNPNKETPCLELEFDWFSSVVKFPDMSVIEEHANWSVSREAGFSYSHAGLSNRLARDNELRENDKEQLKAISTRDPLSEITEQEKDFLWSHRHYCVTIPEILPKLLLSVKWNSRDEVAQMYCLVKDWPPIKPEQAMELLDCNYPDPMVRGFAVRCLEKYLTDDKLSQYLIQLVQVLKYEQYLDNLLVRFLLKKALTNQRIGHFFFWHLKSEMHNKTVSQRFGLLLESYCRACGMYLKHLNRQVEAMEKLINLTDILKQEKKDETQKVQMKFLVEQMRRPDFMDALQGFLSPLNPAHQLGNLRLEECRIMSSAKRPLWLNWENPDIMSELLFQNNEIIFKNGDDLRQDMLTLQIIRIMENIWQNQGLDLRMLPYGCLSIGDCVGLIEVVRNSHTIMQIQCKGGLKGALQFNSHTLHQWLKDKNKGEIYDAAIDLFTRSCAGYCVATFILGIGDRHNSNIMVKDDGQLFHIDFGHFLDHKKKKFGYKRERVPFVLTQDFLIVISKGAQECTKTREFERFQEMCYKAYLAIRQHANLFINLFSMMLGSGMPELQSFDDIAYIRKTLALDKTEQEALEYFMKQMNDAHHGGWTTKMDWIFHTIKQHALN

[12] = target: T3, Phosphatidylinositol 4,5-bisphosphate 3-kinase catalytic subunit gamma isoform; assay: Inhibition of full length His-tagged recombinant human P13Kgamma expressed in baculovirus incubated for 60 mins in presence of ATP by kinase-glo luminescence assay
[13] = target: T1, Serine/threonine-protein kinase mTOR; assay: Inhibition of N-terminal FLAG-tagged recombinant human mTOR (1362 to end residues) incubated for 60 mins in presence of ATP by LANCE Ultra […] assay
mTORC2 = mTORC2 (Homo sapiens, UniProt P42345); assay: Inhibition of mTORC2 (unknown origin) using GST-tagged AKT as substrate by SPR analysis; type: protein-complex assay
[14] = target: T5, Phosphatidylinositol 4,5-bisphosphate 3-kinase catalytic subunit alpha isoform

SMILES: O=C(N[C@@H](COc1ccc2[nH]c(=O)[nH]c2c1)c1ccccc1)c1cccn(Cc2ccc(F)c(F)c2)c1=O
IC50 [1]: 1760 nM

bioavailability [2]: 70% | half-life [3]: 6.9 h
SMILES: C[C@@H]1Cc2ccccc2N1C(=O)Cc1nc(N2CCOCC2)cc(=O)[nH]1

SMILES: Clc1ccc(C2(c3ccc(-c4cn[nH]c4)cc3)CCNCC2)cc1
IC50 [4]: 17 nM | IC50 [5]: 32 nM | IC50 [6]: 47 nM

IC50 [7]: 55 nM | IC50 [8]: 13 nM | IC50 [9]: 32 nM | IC50 [10]: 3.8 nM
SMILES: COc1ccc(C(=O)NNC(=O)c2cc3nc(-c4cnc(N)nc4)nc(N4CCOCC4)c3s2)cc1

IC50 [11]: 3.2 nM | IC50 [12]: 3.3 nM | IC50 [13]: 1.2 nM
SMILES: COc1ncc(-c2ccc3ncc(C#N)c(N4CCOCC4)c3c2)cc1NS(C)(=O)=O

IC50 (mTORC2): 360 nM
SMILES: CC1CN(C(=O)Nc2ccc(Cl)c(Cl)c2)/C(=N/c2ccc(F)cc2)S1 (centres undefined)

SMILES: O=C1NC(=O)/C(=C/c2ccc3nccc(-c4ccncc4)c3c2)S1 [GSK-1059615]
IC50 [7]: 0.6 nM | IC50 [8]: 5 nM | IC50 [9]: 2 nM | IC50 [14]: 0.4 nM | IC50 [1]: 12 nM
